# Assay results from the kinase profiling compilation of Christmann-Franck et al. (2016).
# Key:
# Experiment in all cases: radiometric filter-binding kinase assay
# [1] = target: BRSK1 (human) (UniProt Q8TDC3)
# [2] = target: PAK6 (human) (UniProt Q9NQU5)
# [3] = target: MAP3K1 (human) (UniProt Q13233)
# [4] = target: HIPK3 (human) (UniProt Q9H422)
# [5] = target: STK11 CAB39 STRADA (human) (UniProt Q9Y376+Q7RTN6+Q15831)
# [6] = target: ERBB4 (human) (UniProt Q15303)
# [7] = target: MARK2 (human) (UniProt Q7KZI7)
# [8] = target: PKN2 (human) (UniProt Q16513)
# [9] = target: MARK1 (human) (UniProt Q9P0L2)
# [10] = target: NTRK1 (human) (UniProt P04629)
# [11] = target: MAPK9 (human) (UniProt P45984)
# [12] = target: PRKCZ (human) (UniProt Q05513)
# [13] = target: MAPK12 (human) (UniProt P53778)
# [14] = target: AURKA (human) (UniProt O14965)
# [15] = target: MAP2K6 (human) (UniProt P52564)
# [16] = target: PIM1 (human) (UniProt P11309)
# [17] = target: GSK3B (human) (UniProt P49841)
# [18] = target: MAP3K9 (human) (UniProt P80192)
# [19] = target: MAPKAPK2 (human) (UniProt P49137)
# [20] = target: PAK4 (human) (UniProt O96013)
# [21] = system: AKT1 (human), P31749 [S473D]
# [22] = target: MARK4 (human) (UniProt Q96L34)
# [23] = target: PRKCA (human) (UniProt P17252)
# [24] = target: MAP2K2 (human) (UniProt P36507)
# [25] = target: EPHA2 (human) (UniProt P29317)
# [26] = target: NUAK1 (human) (UniProt O60285)
# [27] = target: MST4 (human) (UniProt Q9P289)
# [28] = target: EPHB3 (human) (UniProt P54753)
# [29] = target: INSR (human) (UniProt P06213)
# [30] = target: EEF2K (human) (UniProt O00418)
# [31] = target: MAP3K7 TAB1 (human) (UniProt Q15750+O43318)
# [32] = target: MELK (human) (UniProt Q14680)
# [33] = target: MAP3K11 (human) (UniProt Q16584)
# [34] = target: DYRK2 (human) (UniProt Q92630)
# [35] = target: MAP3K5 (human) (UniProt Q99683)
# [36] = target: IRAK4 (human) (UniProt Q9NWZ3)
# IRAK4 (human), sequence (Q9NWZ3 whole entry, looked up): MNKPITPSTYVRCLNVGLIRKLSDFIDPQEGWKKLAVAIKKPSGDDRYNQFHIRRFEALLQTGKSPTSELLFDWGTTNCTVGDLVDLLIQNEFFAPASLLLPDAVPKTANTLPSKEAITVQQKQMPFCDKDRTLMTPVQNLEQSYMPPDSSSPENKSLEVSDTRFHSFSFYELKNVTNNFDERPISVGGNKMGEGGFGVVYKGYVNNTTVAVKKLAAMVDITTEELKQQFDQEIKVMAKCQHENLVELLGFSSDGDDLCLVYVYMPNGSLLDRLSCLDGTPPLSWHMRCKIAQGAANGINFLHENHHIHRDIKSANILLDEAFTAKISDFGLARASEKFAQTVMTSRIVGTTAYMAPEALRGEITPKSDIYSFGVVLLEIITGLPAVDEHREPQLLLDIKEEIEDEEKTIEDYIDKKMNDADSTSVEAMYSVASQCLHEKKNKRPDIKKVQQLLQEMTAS
# MAP3K11 (human), sequence (Q16584 whole entry, looked up): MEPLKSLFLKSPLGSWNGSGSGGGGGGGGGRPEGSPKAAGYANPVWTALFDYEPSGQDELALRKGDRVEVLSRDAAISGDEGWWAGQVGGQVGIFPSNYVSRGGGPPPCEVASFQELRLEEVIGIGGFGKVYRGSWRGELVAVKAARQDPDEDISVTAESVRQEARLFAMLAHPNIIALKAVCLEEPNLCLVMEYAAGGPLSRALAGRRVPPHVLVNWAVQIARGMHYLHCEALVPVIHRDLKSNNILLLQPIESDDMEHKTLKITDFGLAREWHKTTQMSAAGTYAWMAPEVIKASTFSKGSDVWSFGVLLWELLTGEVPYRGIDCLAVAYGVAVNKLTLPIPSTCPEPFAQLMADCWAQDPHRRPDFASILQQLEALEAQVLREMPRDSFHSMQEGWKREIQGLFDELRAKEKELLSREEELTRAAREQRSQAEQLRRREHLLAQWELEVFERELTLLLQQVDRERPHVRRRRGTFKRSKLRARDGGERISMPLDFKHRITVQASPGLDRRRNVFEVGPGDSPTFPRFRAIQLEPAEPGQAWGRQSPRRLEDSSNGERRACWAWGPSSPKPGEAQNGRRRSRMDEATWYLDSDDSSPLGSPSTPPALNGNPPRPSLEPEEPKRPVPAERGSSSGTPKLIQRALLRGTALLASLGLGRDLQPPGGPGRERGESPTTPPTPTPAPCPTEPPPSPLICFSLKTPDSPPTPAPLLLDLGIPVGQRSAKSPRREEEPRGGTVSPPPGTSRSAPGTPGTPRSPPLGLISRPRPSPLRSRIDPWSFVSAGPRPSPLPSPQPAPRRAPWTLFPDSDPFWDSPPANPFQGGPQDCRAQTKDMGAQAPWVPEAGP
# MARK2 (human), sequence (Q7KZI7 whole entry, looked up): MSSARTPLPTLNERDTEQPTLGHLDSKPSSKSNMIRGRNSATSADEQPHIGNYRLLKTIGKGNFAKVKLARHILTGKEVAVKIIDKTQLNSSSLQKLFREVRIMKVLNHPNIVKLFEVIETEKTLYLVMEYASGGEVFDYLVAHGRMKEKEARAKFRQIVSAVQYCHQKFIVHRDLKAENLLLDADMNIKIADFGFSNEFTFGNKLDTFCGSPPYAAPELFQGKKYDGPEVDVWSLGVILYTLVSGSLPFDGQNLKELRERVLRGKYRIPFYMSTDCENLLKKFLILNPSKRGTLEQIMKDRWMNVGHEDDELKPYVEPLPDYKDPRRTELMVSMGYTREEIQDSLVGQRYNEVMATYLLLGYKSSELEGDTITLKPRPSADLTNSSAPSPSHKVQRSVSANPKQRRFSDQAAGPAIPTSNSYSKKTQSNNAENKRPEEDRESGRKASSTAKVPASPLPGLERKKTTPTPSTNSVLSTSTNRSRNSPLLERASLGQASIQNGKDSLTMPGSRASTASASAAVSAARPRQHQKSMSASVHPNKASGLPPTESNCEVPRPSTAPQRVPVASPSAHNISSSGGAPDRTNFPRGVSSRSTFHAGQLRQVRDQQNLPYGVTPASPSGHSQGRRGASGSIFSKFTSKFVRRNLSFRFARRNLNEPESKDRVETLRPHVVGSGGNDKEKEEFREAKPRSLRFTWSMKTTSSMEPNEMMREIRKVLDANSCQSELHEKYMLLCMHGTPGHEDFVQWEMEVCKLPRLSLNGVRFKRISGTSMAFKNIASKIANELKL
# PAK6 (human), sequence (Q9NQU5 whole entry, looked up): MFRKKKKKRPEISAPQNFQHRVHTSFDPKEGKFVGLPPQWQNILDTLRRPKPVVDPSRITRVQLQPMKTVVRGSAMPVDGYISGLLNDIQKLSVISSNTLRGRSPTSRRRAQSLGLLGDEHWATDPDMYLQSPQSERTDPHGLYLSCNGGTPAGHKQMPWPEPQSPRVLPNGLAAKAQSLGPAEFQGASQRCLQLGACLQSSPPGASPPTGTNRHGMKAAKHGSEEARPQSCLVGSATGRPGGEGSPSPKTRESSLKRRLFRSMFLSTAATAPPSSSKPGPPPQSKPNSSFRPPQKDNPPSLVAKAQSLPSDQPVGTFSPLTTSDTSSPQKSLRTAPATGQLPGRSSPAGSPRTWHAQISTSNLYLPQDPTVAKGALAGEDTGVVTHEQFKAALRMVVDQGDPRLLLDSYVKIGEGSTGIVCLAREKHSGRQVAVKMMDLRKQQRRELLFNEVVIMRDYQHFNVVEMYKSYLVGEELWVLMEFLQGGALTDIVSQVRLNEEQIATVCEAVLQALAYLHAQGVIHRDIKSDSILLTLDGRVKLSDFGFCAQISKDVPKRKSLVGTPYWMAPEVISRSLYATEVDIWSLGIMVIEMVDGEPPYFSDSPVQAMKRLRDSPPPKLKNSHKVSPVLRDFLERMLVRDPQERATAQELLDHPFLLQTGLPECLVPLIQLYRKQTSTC
# MAPKAPK2 (human), sequence (P49137 whole entry, looked up): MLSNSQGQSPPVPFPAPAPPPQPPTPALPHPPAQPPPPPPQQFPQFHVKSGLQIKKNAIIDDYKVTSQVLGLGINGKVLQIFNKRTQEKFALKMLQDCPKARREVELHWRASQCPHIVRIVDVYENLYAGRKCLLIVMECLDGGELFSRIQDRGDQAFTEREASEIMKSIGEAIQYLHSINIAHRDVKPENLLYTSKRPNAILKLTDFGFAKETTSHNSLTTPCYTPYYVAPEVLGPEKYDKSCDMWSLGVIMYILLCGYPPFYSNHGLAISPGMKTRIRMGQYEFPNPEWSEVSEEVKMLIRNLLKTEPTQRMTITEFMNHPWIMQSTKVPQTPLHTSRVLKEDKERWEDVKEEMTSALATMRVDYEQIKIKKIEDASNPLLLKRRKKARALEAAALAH
# MAP2K6 (human), sequence (P52564 whole entry, looked up): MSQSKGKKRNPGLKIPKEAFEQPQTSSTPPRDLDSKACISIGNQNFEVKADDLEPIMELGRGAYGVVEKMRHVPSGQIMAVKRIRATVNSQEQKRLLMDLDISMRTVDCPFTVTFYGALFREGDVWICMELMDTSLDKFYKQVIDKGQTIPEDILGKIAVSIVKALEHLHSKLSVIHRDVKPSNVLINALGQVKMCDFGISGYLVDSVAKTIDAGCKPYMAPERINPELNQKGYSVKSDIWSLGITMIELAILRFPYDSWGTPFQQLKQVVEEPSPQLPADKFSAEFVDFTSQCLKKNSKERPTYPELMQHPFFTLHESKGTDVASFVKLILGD
# PKN2 (human), sequence (Q16513 whole entry, looked up): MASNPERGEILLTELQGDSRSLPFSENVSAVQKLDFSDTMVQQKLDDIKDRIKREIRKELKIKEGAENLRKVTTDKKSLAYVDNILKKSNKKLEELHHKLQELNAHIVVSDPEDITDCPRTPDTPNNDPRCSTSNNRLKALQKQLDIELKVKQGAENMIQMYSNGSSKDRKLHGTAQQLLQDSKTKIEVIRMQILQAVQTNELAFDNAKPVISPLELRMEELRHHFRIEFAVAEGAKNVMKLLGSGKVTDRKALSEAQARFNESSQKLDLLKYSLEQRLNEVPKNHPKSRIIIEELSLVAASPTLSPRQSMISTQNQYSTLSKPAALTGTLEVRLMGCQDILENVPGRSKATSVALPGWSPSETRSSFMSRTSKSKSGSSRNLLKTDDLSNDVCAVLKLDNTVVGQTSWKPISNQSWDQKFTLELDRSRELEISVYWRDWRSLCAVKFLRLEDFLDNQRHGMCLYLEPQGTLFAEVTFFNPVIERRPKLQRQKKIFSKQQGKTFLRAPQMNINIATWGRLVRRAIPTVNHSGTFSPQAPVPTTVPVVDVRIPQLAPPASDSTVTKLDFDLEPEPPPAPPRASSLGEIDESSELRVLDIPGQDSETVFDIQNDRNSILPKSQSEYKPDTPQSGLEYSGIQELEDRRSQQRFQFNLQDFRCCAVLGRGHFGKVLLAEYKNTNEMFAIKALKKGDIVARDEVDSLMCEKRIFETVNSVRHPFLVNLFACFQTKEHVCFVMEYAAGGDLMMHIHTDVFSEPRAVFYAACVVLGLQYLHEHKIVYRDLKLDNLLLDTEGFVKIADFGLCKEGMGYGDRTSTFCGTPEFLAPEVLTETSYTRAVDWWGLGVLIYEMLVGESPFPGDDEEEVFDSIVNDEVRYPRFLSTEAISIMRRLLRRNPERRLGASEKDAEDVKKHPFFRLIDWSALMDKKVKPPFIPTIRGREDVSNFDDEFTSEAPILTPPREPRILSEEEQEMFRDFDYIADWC
# MAPK12 (human), sequence (P53778 whole entry, looked up): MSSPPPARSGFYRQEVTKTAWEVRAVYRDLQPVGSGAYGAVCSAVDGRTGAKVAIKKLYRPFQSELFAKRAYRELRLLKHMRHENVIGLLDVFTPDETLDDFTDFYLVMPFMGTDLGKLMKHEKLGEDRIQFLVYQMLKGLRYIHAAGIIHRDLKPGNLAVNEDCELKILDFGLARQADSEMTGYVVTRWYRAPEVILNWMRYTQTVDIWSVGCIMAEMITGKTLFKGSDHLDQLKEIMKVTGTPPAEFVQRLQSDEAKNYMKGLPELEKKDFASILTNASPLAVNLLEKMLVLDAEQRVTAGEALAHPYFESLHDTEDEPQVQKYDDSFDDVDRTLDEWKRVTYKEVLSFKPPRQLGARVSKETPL
smiles,measurement,setting,value
NC(=O)c1cc(-c2ccnc(NC3CCCCC3)c2)nc(N2CCNCC2)c1,residual activity,[1]; compound 0.1 µM,96%
same,residual activity,[1]; compound 1.0 µM,73%
same,residual activity,[1]; compound 10.0 µM,26%
same,residual activity,[2]; compound 0.1 µM,99%
same,residual activity,[2]; compound 1.0 µM,99%
same,residual activity,[2]; compound 10.0 µM,81%
same,residual activity,[3]; compound 0.1 µM,115%
same,residual activity,[3]; compound 10.0 µM,102%
same,residual activity,[4]; compound 0.1 µM,95%
same,residual activity,[4]; compound 1.0 µM,92%
same,residual activity,[4]; compound 10.0 µM,101%
same,residual activity,[5]; compound 0.1 µM,77%
same,residual activity,[5]; compound 10.0 µM,71%
same,residual activity,[6]; compound 0.1 µM,83%
same,residual activity,[6]; compound 10.0 µM,73%
same,residual activity,[7]; compound 0.1 µM,97%
same,residual activity,[7]; compound 1.0 µM,63%
same,residual activity,[7]; compound 10.0 µM,31%
same,residual activity,[8]; compound 0.1 µM,96%
same,residual activity,[8]; compound 1.0 µM,66%
same,residual activity,[8]; compound 10.0 µM,19%
same,residual activity,[9]; compound 0.1 µM,51%
same,residual activity,[9]; compound 1.0 µM,94%
same,residual activity,[9]; compound 10.0 µM,76%
same,residual activity,[10]; compound 0.1 µM,72%
same,residual activity,[10]; compound 10.0 µM,71%
same,residual activity,[11]; compound 0.1 µM,91%
same,residual activity,[11]; compound 10.0 µM,35%
same,residual activity,[12]; compound 0.1 µM,88%
same,residual activity,[12]; compound 1.0 µM,109%
same,residual activity,[12]; compound 10.0 µM,84%
same,residual activity,[13]; compound 0.1 µM,95%
same,residual activity,[13]; compound 1.0 µM,96%
same,residual activity,[13]; compound 10.0 µM,58%
same,residual activity,[14]; compound 0.1 µM,92%
same,residual activity,[14]; compound 1.0 µM,88%
same,residual activity,[14]; compound 10.0 µM,112%
same,residual activity,[15]; compound 0.1 µM,92%
same,residual activity,[15]; compound 1.0 µM,29%
same,residual activity,[15]; compound 10.0 µM,16%
same,residual activity,[16]; compound 0.1 µM,114%
same,residual activity,[16]; compound 1.0 µM,98%
same,residual activity,[16]; compound 10.0 µM,65%
same,residual activity,[17]; compound 0.1 µM,86%
same,residual activity,[17]; compound 1.0 µM,82%
same,residual activity,[17]; compound 10.0 µM,51%
same,residual activity,[18]; compound 1.0 µM,69%
same,residual activity,[18]; compound 10.0 µM,103%
same,residual activity,[19]; compound 0.1 µM,99%
same,residual activity,[19]; compound 1.0 µM,72%
same,residual activity,[19]; compound 10.0 µM,22%
same,residual activity,[20]; compound 0.1 µM,101%
same,residual activity,[20]; compound 1.0 µM,93%
same,residual activity,[20]; compound 10.0 µM,74%
same,residual activity,[21]; compound 0.1 µM,109%
same,residual activity,[21]; compound 1.0 µM,106%
same,residual activity,[21]; compound 10.0 µM,94%
same,residual activity,[22]; compound 0.1 µM,87%
same,residual activity,[22]; compound 1.0 µM,46%
same,residual activity,[22]; compound 10.0 µM,10%
same,residual activity,[23]; compound 0.1 µM,97%
same,residual activity,[23]; compound 1.0 µM,95%
same,residual activity,[23]; compound 10.0 µM,90%
same,residual activity,[24]; compound 0.1 µM,106%
same,residual activity,[24]; compound 1.0 µM,123%
same,residual activity,[24]; compound 10.0 µM,115%
same,residual activity,[25]; compound 0.1 µM,78%
same,residual activity,[25]; compound 1.0 µM,99%
same,residual activity,[25]; compound 10.0 µM,82%
same,residual activity,[26]; compound 1.0 µM,17%
same,residual activity,[26]; compound 10.0 µM,32%
same,residual activity,[27]; compound 0.1 µM,117%
same,residual activity,[27]; compound 1.0 µM,107%
same,residual activity,[27]; compound 10.0 µM,95%
same,residual activity,[28]; compound 0.1 µM,105%
same,residual activity,[28]; compound 1.0 µM,124%
same,residual activity,[28]; compound 10.0 µM,94%
same,residual activity,[29]; compound 0.1 µM,89%
same,residual activity,[29]; compound 1.0 µM,86%
same,residual activity,[29]; compound 10.0 µM,93%
same,residual activity,[30]; compound 0.1 µM,105%
same,residual activity,[30]; compound 1.0 µM,111%
same,residual activity,[30]; compound 10.0 µM,87%
same,residual activity,[31]; compound 0.1 µM,94%
same,residual activity,[31]; compound 1.0 µM,100%
same,residual activity,[31]; compound 10.0 µM,55%
same,residual activity,[32]; compound 0.1 µM,108%
same,residual activity,[32]; compound 1.0 µM,78%
same,residual activity,[32]; compound 10.0 µM,40%
same,residual activity,[33]; compound 0.1 µM,93%
same,residual activity,[33]; compound 1.0 µM,86%
same,residual activity,[33]; compound 10.0 µM,81%
same,residual activity,[34]; compound 0.1 µM,74%
same,residual activity,[34]; compound 1.0 µM,29%
same,residual activity,[34]; compound 10.0 µM,10%
same,residual activity,[35]; compound 0.1 µM,98%
same,residual activity,[35]; compound 1.0 µM,84%
same,residual activity,[35]; compound 10.0 µM,21%
same,residual activity,[36]; compound 0.1 µM,96%
same,residual activity,[36]; compound 1.0 µM,127%
same,residual activity,[36]; compound 10.0 µM,92%
